Measured values as given in patent publication US20090264415A2 (priority 2004, published 2009).

test system: peripheral blood mononuclear cells (PBMC) stimulated with allogeneic PBMC or EBV-transformed human B cells (RPMI1788); assay: Mixed lymphocyte reaction (MLR) assay; format: cell-based; details: 50% suppression of the MLR, [3H]-thymidine incorporation; read-out: MLR
Outline: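 Responder PBMC co-cultured in triplicate with 30 Gy-irradiated allogeneic PBMC or RPMI1788 B cells plus compound (DMSO stock 10 mM, diluted in medium). After 5 days at 37° C, 1 μCi [3H]-thymidine added for 16 h more; incorporated cpm counted and proliferation inhibition calculated.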

Work on `CCCCOc1nc(N2CCN(C(=O)Nc3cccc(C)c3)CC2)c2nc(-c3ccc(OC)c(OC)c3)ccc2n1` [Example 89, 2-butoxy-4-[(N-3-methyl-phenylcarbamoyl)-piperazin-1-yl]-6-(3,4-dimethoxyphenyl)-pyrido[3,2-d]pyrimidine] yielded an IC50 of 2000 nM.

same assay, conditions: Homo sapiens, RPMI-1788; 50% suppression of the MLR, [3H]-thymidine incorporation; read-out: MLR

First: Nc1nc(N2CCOCC2)c2nc(Cl)ccc2n1 [Example 230, 2-amino-6-chloro-4-morpholino-pyrido[3,2-d]pyrimidine]
Second: Nc1nc(N2CCOCC2)c2nc(-c3ccc(F)c(Cl)c3)ccc2n1 [Example 242, 2-amino-4-morpholino-6-(3-chloro-4-fluorophenyl)-pyrido[3,2-d]pyrimidine]
The IC50 of the first is higher: > 10000 nM for the first, 2600 nM for the second.

`Nc1nc(N2CCOCC2)c2nc(-c3ccc(F)cc3)ccc2n1` [Example 245, 2-amino-4-morpholino-6-(4-fluorophenyl)-pyrido[3,2-d]pyrimidine] showed an IC50 of 2300 nM.

same assay, conditions: Homo sapiens, RPMI-1788; MLR assay of example 319; read-out: MLR IC50

First: Nc1nc(N2CCN(C(=O)CNC(=O)c3ccc(Cl)cc3)CC2)c2nc(-c3ccc(F)cc3)ccc2n1 [Example 476, N-(2-{4-[2-amino-6-(4-fluorophenyl)-pyrido[3,2-d]pyrimidin-4-yl]-piperazin-1-yl}-2-oxoethyl)-4-chlorobenzamide]
Second: CC(=O)c1ccc(-c2ccc3nc(N)nc(N4CCN(C(=O)COc5ccc(Cl)cc5)CC4)c3n2)cc1 [Example 446, 2-amino-4-[4-(4-chlorophenoxyacetyl)piperazin-1-yl]-6-(4-acetylphenyl)pyrido-[3,2-d]pyrimidine]
The IC50 of the first is 5.5-fold higher: 60 nM for the first, 11 nM for the second. The second is the more potent here.

Going from `CC(C)(C)OC(=O)N1CCC(Nc2nc(N)nc3ccc(-c4ccc(F)cc4)nc23)C1` [Example 577, 2-amino-4-[(S)-1-Boc-amino-pyrrolidin-3-yl]-6-(4-fluorophenyl)-pyrido(3,2-d)pyrimidine] to `CC(C)(Oc1ccc(Cl)cc1)C(=O)N1CCN(c2nc(N)nc3ccc(-c4ccc(F)cc4)nc23)CC1` [Example 472, 2-amino-4-{4-[2-(4-chlorophenoxy)-2-methylpropionyl]-piperazin-1-yl}-6-(4-fluorophenyl)-pyrido[3,2-d]pyrimidine], the IC50 rises from 4400 nM to > 10000 nM. The first is the more potent here.

`Cc1cccc(NC(=O)N2CCN(c3ncnc4ccc(-c5ccccc5C#N)nc34)CC2)c1` [Example 557, 4-[(3-methylphenylcarbamoyl)-piperazin-1-yl]-6-(2-cyanophenyl)pyrido[3,2-d]pyrimidine] and `Cc1cccc(NC(=O)N2CCN(c3nc(N)nc4ccc(-c5cccc(C#N)c5)nc34)CC2)c1` [Example 545, 2-amino-4-[(3-methylphenylcarbamoyl)-piperazin-1-yl]-6-(3-cyanophenyl)-pyrido[3,2-d]pyrimidine] are the same in IC50: 30 nM for the first, 30 nM for the second.

Going from `COc1ccc(-c2ccc3nc(N)nc(N4CCN(C(=O)COc5ccc(Cl)cc5)CC4)c3n2)c(OC)c1` [Example 505, 2-amino-4-[N-(4-chlorophenoxyacetyl)-piperazin-1-yl]-6-(2,4-dimethoxyphenyl)-pyrido(3,2-d)pyrimidine] to `Nc1nc(N2CCN(C(=O)COc3ccc(Cl)cc3)CC2)c2nc(-c3cc(Cl)ccc3F)ccc2n1` [Example 431, 2-amino-4-[4-(4-chlorophenoxyacetyl)piperazin-1-yl]-6-(5-chloro-2-fluorophenyl)-pyrido-[3,2-d]pyrimidine], the IC50 rises from 72 nM to 330 nM (4.6-fold).

Compared with `Cc1ccc(-c2ccc3nc(N)nc(N4CCN(C(=O)COc5ccc(Cl)cc5)CC4)c3n2)cc1` [Example 445, 2-amino-4-[4-(4-chlorophenoxyacetyl)piperazin-1-yl]-6-(4-methylphenyl)pyrido-[3,2-d]pyrimidine], `Nc1nc(N2CCN(C(=O)COc3ccc(Cl)cc3)CC2)c2nc(-c3ccc(CO)cc3)ccc2n1` [Example 441, 2-amino-4-[4-(4-chlorophenoxyacetyl)piperazin-1-yl]-6-[4-(hydroxymethyl)phenyl]pyrido-[3,2-d]pyrimidine] is 3.6-fold lower in IC50: 29 nM for the first, 8 nM for the second.

For `Nc1nc(N2CCN(C(=O)COc3ccc(Cl)cc3)CC2)c2nc(-c3ccc(F)c(F)c3)ccc2n1` [Example 404, 2-amino-4-[4-(4-chlorophenoxyacetyl)piperazin-1-yl]-6-(3,4-difluorophenyl)pyrido-[3,2-d]pyrimidine], the IC50 was 40 nM.
